Reference: patent US10294202B2, “Pyrrolidinones as herbicides” (FMC Corporation, priority 2013, dated 2019)

Assays:
barnyardgrass [1] = test: Test A pre-/postemergence herbicide test; assay type: in vivo, Echinochloa crus-galli
Summary of the method: (§1)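 Seeds in loam–sand blend received preemergence directed soil spray; separately, plants 2–10 cm at one- to two-leaf stage received postemergence spray, both with test chemicals in non-phytotoxic solvent with surfactant. After ~10 days in greenhouse, injury rated visually against untreated controls, 0 (no effect) to 100 (complete control).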

kochia = test: Test A pre-/postemergence herbicide test; assay type: in vivo, Kochia scoparia; details: for Plant response rating, Kochia: 0 to 100 scale
Summary of the method: as §1

ragweed = test: Test A pre-/postemergence herbicide test; assay type: in vivo, Ambrosia elatior; details: for Plant response rating, Ragweed: 0 to 100 scale
Summary of the method: as §1

ryegrass, Italian = test: Test A pre-/postemergence herbicide test; assay type: in vivo, Lolium multiflorum; details: for Plant response rating, Ryegrass, Italian: 0 to 100 scale
Summary of the method: as §1

giant foxtail = test: Test A pre-/postemergence herbicide test; assay type: in vivo, Setaria faberii; details: for Plant response rating, Foxtail, Giant: 0 to 100 scale
Summary of the method: as §1

pigweed = test: Test A pre-/postemergence herbicide test; assay type: in vivo, Amaranthus retroflexus; details: for Plant response rating, Pigweed: 0 to 100 scale
Summary of the method: as §1

wheat = test: Test A pre-/postemergence herbicide test; assay type: in vivo, Triticum aestivum; details: Postemergence; for Plant response rating, Wheat: 125 g ai/ha, 0 to 100 scale, 0 is no effect, 100 is complete control; for Wheat plant response rating (0 to 100 scale, 0 is no effect, 100 is complete control): 500 g ai/ha
Summary of the method: as §1

corn = test: Test A pre-/postemergence herbicide test; assay type: in vivo, Zea mays; details: Postemergence; for Plant response rating, Corn: 125 g ai/ha, 0 to 100 scale, 0 is no effect, 100 is complete control; for Corn plant response rating (0 to 100 scale, 0 is no effect, 100 is complete control): 500 g ai/ha
Summary of the method: as §1

blackgrass = test: Test A postemergence herbicide test; assay type: in vivo, Alopecurus myosuroides; details: for Plant response rating, Blackgrass: 125 g ai/ha, 0 to 100 scale, 0 is no effect, 100 is complete control; for Blackgrass plant response rating (0 to 100 scale, 0 is no effect, 100 is complete control): 500 g ai/ha
Summary of the method: (§2)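 Visual injury rating, 0 (no effect) to 100 (complete control), versus untreated controls ~10 days after treatment. Postemergence spray applied at one- to two-leaf stage, plants 2–10 cm tall, potted in loam soil/sand. Greenhouse-held.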

galium = test: Test A postemergence herbicide test; assay type: in vivo, Galium aparine; details: for Plant response rating, Galium: 125 g ai/ha, 0 to 100 scale, 0 is no effect, 100 is complete control; for Galium plant response rating (0 to 100 scale, 0 is no effect, 100 is complete control): 500 g ai/ha
Summary of the method: as §2

rice = test: Test B flooded paddy test; assay type: in vivo, Oryza sativa; details: 500 g ai/ha, Flood; scale of 0 to 100 where 0 is no effect and 100 is complete control
Summary of the method: (§3)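 Paddy-water application at a 3 cm flood, young plants having two leaves. Water level maintained; greenhouse, 13–15 days; visual 0–100 control rating.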

sedge, umbrella = test: Test B flooded paddy test; assay type: in vivo, Cyperus difformis; details: 500 g ai/ha, Flood; scale of 0 to 100 where 0 is no effect and 100 is complete control
Summary of the method: as §3

ducksalad = test: Test B flooded paddy test; assay type: in vivo, Heteranthera limosa; details: 500 g ai/ha, Flood; scale of 0 to 100 where 0 is no effect and 100 is complete control
Summary of the method: as §3

barnyardgrass [2] = test: Test B flooded paddy test; assay type: in vivo, Echinochloa crus-galli; details: 500 g ai/ha, Flood; scale of 0 to 100 where 0 is no effect and 100 is complete control
Summary of the method: as §3

[3] = 125 g ai/ha, visual rating, 0 to 100 scale, 0 no effect, 100 complete control, approximately 10 days, preemergence
[4] = Postemergence, 125 g ai/ha, 0 to 100 scale, 0 is no effect, 100 is complete control
[5] = preemergence, 500 g ai/ha, 0 to 100 scale (0 no effect, 100 complete control)
[6] = 125 g ai/ha, visual rating, 0 no effect, 100 complete control, approximately 10 days, preemergence
[7] = Postemergence, 125 g ai/ha, 0 is no effect, 100 is complete control
[8] = preemergence, 500 g ai/ha, 0 is no effect and 100 is complete control

Compound: CS(=O)(=O)c1ccccc1NC(=O)C1C(=O)NCC1c1cccc(C(F)(F)F)c1 (racemic) [Compound 160]
- Plant response rating, Barnyardgrass (barnyardgrass [1]; [3]): 80
- Plant response rating, Barnyardgrass (barnyardgrass [1]; [4]): 70
- Barnyardgrass plant response rating (0 to 100 scale, 0 is no effect, 100 is complete control) (barnyardgrass [1]; Postemergence, 500 g ai/ha): 80
- Plant response rating, Barnyardgrass (barnyardgrass [1]; [5]): 90
- Plant response rating, Kochia (kochia; [6]): 80
- Plant response rating, Kochia (kochia; [7]): 70
- Kochia plant response rating (0 to 100 scale, 0 is no effect, 100 is complete control) (kochia; Postemergence, 500 g ai/ha): 80
- Plant response rating, Kochia (kochia; [8]): 90
- Plant response rating, Ragweed (ragweed; [6]): 70
- Plant response rating, Ragweed (ragweed; [7]): 50
- Ragweed plant response rating (0 to 100 scale, 0 is no effect, 100 is complete control) (ragweed; Postemergence, 500 g ai/ha): 60
- Plant response rating, Ragweed (ragweed; [8]): 80
- Plant response rating, Ryegrass, Italian (ryegrass, Italian; [6]): 60
- Plant response rating, Ryegrass, Italian (ryegrass, Italian; [7]): 0
- Ryegrass, Italian plant response rating (0 to 100 scale, 0 is no effect, 100 is complete control) (ryegrass, Italian; Postemergence, 500 g ai/ha): 10
- Plant response rating, Ryegrass, Italian (ryegrass, Italian; [8]): 70
- Plant response rating, Foxtail, Giant (giant foxtail; [6]): 80
- Plant response rating, Foxtail, Giant (giant foxtail; [7]): 80
- Foxtail, Giant plant response rating (0 to 100 scale, 0 is no effect, 100 is complete control) (giant foxtail; Postemergence, 500 g ai/ha): 90
- Plant response rating, Foxtail, Giant (giant foxtail; preemergence, 500 g ai/ha): 90
- Plant response rating, Pigweed (pigweed; [6]): 70
- Plant response rating, Pigweed (pigweed; [7]): 60
- Pigweed plant response rating (0 to 100 scale, 0 is no effect, 100 is complete control) (pigweed; Postemergence, 500 g ai/ha): 80
- Plant response rating, Pigweed (pigweed; [8]): 90
- Plant response rating, Wheat (wheat): 0
- Wheat plant response rating (0 to 100 scale, 0 is no effect, 100 is complete control) (wheat): 50
- Plant response rating, Corn (corn): 40
- Corn plant response rating (0 to 100 scale, 0 is no effect, 100 is complete control) (corn): 70
- Plant response rating, Blackgrass (blackgrass): 60
- Blackgrass plant response rating (0 to 100 scale, 0 is no effect, 100 is complete control) (blackgrass): 70
- Plant response rating, Galium (galium): 60
- Galium plant response rating (0 to 100 scale, 0 is no effect, 100 is complete control) (galium): 70
- Plant response rating, Rice (rice): 10
- Plant response rating, Sedge, Umbrella (sedge, umbrella): 0
- Plant response rating, Ducksalad (ducksalad): 100
- Plant response rating, Barnyardgrass (barnyardgrass [2]): 60

Compound: O=C1NCC(c2ccc3c(c2)OC(F)(F)O3)C1C(=O)Nc1ccc(F)c(F)c1F (racemic) [Compound 162]
- Plant response rating, Barnyardgrass (barnyardgrass [1]; [3]): 90
- Plant response rating, Barnyardgrass (barnyardgrass [1]; [4]): 70
- Barnyardgrass plant response rating (0 to 100 scale, 0 is no effect, 100 is complete control) (barnyardgrass [1]; Postemergence, 500 g ai/ha): 90
- Plant response rating, Barnyardgrass (barnyardgrass [1]; [5]): 90
- Plant response rating, Kochia (kochia; [6]): 50
- Plant response rating, Kochia (kochia; [7]): 40
- Kochia plant response rating (0 to 100 scale, 0 is no effect, 100 is complete control) (kochia; Postemergence, 500 g ai/ha): 70
- Plant response rating, Kochia (kochia; [8]): 60
- Plant response rating, Ragweed (ragweed; [6]): 0
- Plant response rating, Ragweed (ragweed; [7]): 0
- Ragweed plant response rating (0 to 100 scale, 0 is no effect, 100 is complete control) (ragweed; Postemergence, 500 g ai/ha): 40
- Plant response rating, Ragweed (ragweed; [8]): 60
- Plant response rating, Ryegrass, Italian (ryegrass, Italian; [6]): 0
- Plant response rating, Ryegrass, Italian (ryegrass, Italian; [7]): 0
- Ryegrass, Italian plant response rating (0 to 100 scale, 0 is no effect, 100 is complete control) (ryegrass, Italian; Postemergence, 500 g ai/ha): 50
- Plant response rating, Ryegrass, Italian (ryegrass, Italian; [8]): 50
- Plant response rating, Foxtail, Giant (giant foxtail; [6]): 80
- Plant response rating, Foxtail, Giant (giant foxtail; [7]): 90
- Foxtail, Giant plant response rating (0 to 100 scale, 0 is no effect, 100 is complete control) (giant foxtail; Postemergence, 500 g ai/ha): 90
- Plant response rating, Foxtail, Giant (giant foxtail; preemergence, 500 g ai/ha): 90
- Plant response rating, Pigweed (pigweed; [6]): 60
- Plant response rating, Pigweed (pigweed; [7]): 20
- Pigweed plant response rating (0 to 100 scale, 0 is no effect, 100 is complete control) (pigweed; Postemergence, 500 g ai/ha): 70
- Plant response rating, Pigweed (pigweed; [8]): 80
- Plant response rating, Wheat (wheat): 0
- Wheat plant response rating (0 to 100 scale, 0 is no effect, 100 is complete control) (wheat): 50
- Plant response rating, Corn (corn): 30
- Corn plant response rating (0 to 100 scale, 0 is no effect, 100 is complete control) (corn): 60
- Plant response rating, Blackgrass (blackgrass): 50
- Blackgrass plant response rating (0 to 100 scale, 0 is no effect, 100 is complete control) (blackgrass): 50
- Plant response rating, Galium (galium): 30
- Galium plant response rating (0 to 100 scale, 0 is no effect, 100 is complete control) (galium): 70
- Plant response rating, Rice (rice): 0
- Plant response rating, Sedge, Umbrella (sedge, umbrella): 0
- Plant response rating, Ducksalad (ducksalad): 100
- Plant response rating, Barnyardgrass (barnyardgrass [2]): 75

Compound: O=C1NCC(c2cccc(C(F)F)c2)C1C(=O)Nc1ccccc1F (racemic) [Compound 163]
- Plant response rating, Barnyardgrass (barnyardgrass [1]; [3]): 80
- Plant response rating, Barnyardgrass (barnyardgrass [1]; [4]): 90
- Barnyardgrass plant response rating (0 to 100 scale, 0 is no effect, 100 is complete control) (barnyardgrass [1]; Postemergence, 500 g ai/ha): 90
- Plant response rating, Barnyardgrass (barnyardgrass [1]; [5]): 90
- Plant response rating, Kochia (kochia; [6]): 0
- Plant response rating, Kochia (kochia; [7]): 0
- Kochia plant response rating (0 to 100 scale, 0 is no effect, 100 is complete control) (kochia; Postemergence, 500 g ai/ha): 0
- Plant response rating, Kochia (kochia; [8]): 50
- Plant response rating, Ragweed (ragweed; [6]): 0
- Plant response rating, Ragweed (ragweed; [7]): 0
- Ragweed plant response rating (0 to 100 scale, 0 is no effect, 100 is complete control) (ragweed; Postemergence, 500 g ai/ha): 20
- Plant response rating, Ragweed (ragweed; [8]): 40
- Plant response rating, Ryegrass, Italian (ryegrass, Italian; [6]): 0
- Plant response rating, Ryegrass, Italian (ryegrass, Italian; [7]): 0
- Ryegrass, Italian plant response rating (0 to 100 scale, 0 is no effect, 100 is complete control) (ryegrass, Italian; Postemergence, 500 g ai/ha): 30
- Plant response rating, Ryegrass, Italian (ryegrass, Italian; [8]): 0
- Plant response rating, Foxtail, Giant (giant foxtail; [6]): 90
- Plant response rating, Foxtail, Giant (giant foxtail; [7]): 70
- Foxtail, Giant plant response rating (0 to 100 scale, 0 is no effect, 100 is complete control) (giant foxtail; Postemergence, 500 g ai/ha): 80
- Plant response rating, Foxtail, Giant (giant foxtail; preemergence, 500 g ai/ha): 90
- Plant response rating, Pigweed (pigweed; [6]): 40
- Plant response rating, Pigweed (pigweed; [7]): 0
- Pigweed plant response rating (0 to 100 scale, 0 is no effect, 100 is complete control) (pigweed; Postemergence, 500 g ai/ha): 20
- Plant response rating, Pigweed (pigweed; [8]): 40
- Plant response rating, Wheat (wheat): 20
- Wheat plant response rating (0 to 100 scale, 0 is no effect, 100 is complete control) (wheat): 60
- Plant response rating, Corn (corn): 10
- Corn plant response rating (0 to 100 scale, 0 is no effect, 100 is complete control) (corn): 40
- Plant response rating, Blackgrass (blackgrass): 50
- Blackgrass plant response rating (0 to 100 scale, 0 is no effect, 100 is complete control) (blackgrass): 60
- Plant response rating, Galium (galium): 20
- Galium plant response rating (0 to 100 scale, 0 is no effect, 100 is complete control) (galium): 60
- Plant response rating, Rice (rice): 15
- Plant response rating, Sedge, Umbrella (sedge, umbrella): 0
- Plant response rating, Ducksalad (ducksalad): 100
- Plant response rating, Barnyardgrass (barnyardgrass [2]): 90
